From US8399430B2, “Alkylated semi synthetic glycosaminoglycosan ethers, and methods for making and using thereof” (University of Utah Research Foundation, priority 2008, dated 2013)
Entries after “also recorded” stand apart in the source; their conditions may differ.

Legend:
P-Selectin/PSGL = target: T1, P-Selectin/PSGL (Homo sapiens, UniProt P16109); assay: U937 monocyte binding to P-selectin (cell binding assay); conditions: Table 2; U937 binding to P-selectin-Fc
T1 construct: purchased R&D Systems (Minneapolis, Minn.)
Protocol: (§1) Cell Binding Assays. The effect of SAGEs on binding of U937 monocytes to P-selectin or RAGE was studied in high-bind micro plates coated with 8 μg/ml protein A ([…]) in 0.2 M carbonate-bicarbonate buffer (pH 9.4). Plates were washed with phosphate buffered saline containing 1% BSA (PBS-BSA), and P-selectin-Fc or RAGE-Fc chimera (50 μL containing 1 μg) was added to each well and incubated for 2 h at room temperature or overnight at 4° C., respectively. Following incubation, wells were washed twice with PBS-BSA. […] As a negative control, 50 μL of 10 mM EDTA was added to select wells to prevent cell binding through sequestration of calcium. At the end of the incubation period, 50 μL of U937 cells (10^5 cells/well, calcein-labeled according to manufacturer's instructions) were added to each well and plates were incubated an additional 30 min at room temperature. The wells were then washed thrice with PBS, and bound cells were lysed by addition of 100 μL of Tris-TritonX-100 containing buffer. Fluorescence was measured on a microplate reader using excitation of 494 nm and emission of 517 nm.

RAGE/Mac-1 = target: T2, RAGE/Mac-1 (Homo sapiens, UniProt Q15109); assay: U937 monocyte binding to RAGE (cell binding assay); conditions: Table 2; U937 binding to RAGE-Fc
T2 construct: purchased R&D Systems (Minneapolis, Minn.)
Protocol: as §1

RAGE/CML-BSA = target: T3, RAGE/CML-BSA (Homo sapiens, UniProt Q15109); assay: Solid phase binding assay, RAGE to CML-BSA; conditions: Table 2
T3 construct: purchased R&D Systems (Minneapolis, Minn.)
Protocol: (§2) Solid phase binding assays. Solid phase binding assays were used to study the ability of SAGEs to inhibit RAGE binding to its ligands. For studies of the effect of SAGEs on RAGE binding to its ligands, polyvinyl 96-well plates were coated with 5 μg/well of specific ligand (CML-BSA, HMGB-I or S100b calgranulin). Plates were incubated overnight at 4° C. and washed thrice with PBS-0.05% Tween-20 (PBST). Separately, RAGE-Fc chimera (100 μL containing 0.5 μg/ml in PBST-0.1% BSA) was incubated with an equal volume of serially diluted SAGEs (0.001 to 1,000 μg/ml in PBST-BSA) overnight at 4° C. The following day, 50 μL of RAGE-SAGE mix was transferred to each respective ligand-coated well and incubated at 37° C. for 2 h. Wells were then washed four times with PBST. To detect bound RAGE, 50 μL of anti-RAGE antibody (0.5 μg/ml) was added to each well, the mixture was incubated for 1 h at room temperature, and wells were washed again four times with PBST. Horse-radish peroxidase conjugated secondary antibody (1:10,000 antibody dilution in PBST; 50 μL per well) was added, wells were incubated for 1 h at room temperature, and then washed once with PBST. A colorimetric reaction was initiated by addition of 50 μL of tetramethyl benzidine chromogen (TMB single solution chromogen) and terminated after 15 min by addition of 50 μL of 1 N HCl. Absorbance at 450 nm was read using an automated microplate reader.

RAGE/S100B = target: T4, RAGE/S100B (Homo sapiens, UniProt Q15109); assay: Solid phase binding assay, RAGE to S100b calgranulin; conditions: Table 2
T4 construct: purchased R&D Systems (Minneapolis, Minn.)
Protocol: as §2

RAGE/HMGB1 = target: T5, RAGE/HMGB1 (Homo sapiens, UniProt Q15109); assay: Solid phase binding assay, RAGE to HMGB-1 (amphoterin); conditions: Table 2
T5 construct: purchased R&D Systems (Minneapolis, Minn.)
Protocol: as §2

human leukocyte elastase = target: T6, human leukocyte elastase (Homo sapiens, UniProt P08246); assay: Human leukocyte elastase activity assay, chromogenic substrate; format: biochemical; conditions: for Leukocyte Elastase: Table 2
T6 sequence (P08246 30-267): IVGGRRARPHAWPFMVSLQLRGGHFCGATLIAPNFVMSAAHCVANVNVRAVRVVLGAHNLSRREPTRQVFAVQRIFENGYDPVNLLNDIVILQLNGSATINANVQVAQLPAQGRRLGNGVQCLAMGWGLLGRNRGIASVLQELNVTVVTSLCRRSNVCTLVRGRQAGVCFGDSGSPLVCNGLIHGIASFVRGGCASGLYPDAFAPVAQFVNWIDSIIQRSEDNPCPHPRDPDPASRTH
Source text: Enzymatic assays. […] Nat Biotech 26:669-675, 2008).

ARPE-19 cells = assay: AGE-induced apoptosis of ARPE-19 cells (Live/Dead stain); format: cell-based, human; conditions: AGE-BSA 25 μM, 40 h, test substance 200 μM
Protocol: The ability of AGE products to induce RPE cell apoptosis was investigated. ARPE-19 cells were grown to confluence on round coverslips, then transferred to new dishes for exposure to 25 μM AGE-BSA for 40 h. Apoptosis was then assayed with Molecular Probes Fixable Live/Dead Cell Stain Kit (LI 1101, Eugene, Oreg.). […] Nuclei are stained […] with DAPI; dead cells are stained green. A. BSA control. Some dead cells are noted at the edges of the coverslip, but live and dead cells are interspersed at the interface. B. AGE-BSA (25 μM). Significant cell death is seen around the edges, and the boundary between live and dead cells is stark. C. AGE-BSA (25 μM)+ODSH (200 μM). […] D. AGE-BSA (25 μM)+P-OSMeHA (200 μM) (GM-11 1101). […] Apoptosis appeared to advance inward from the edges of cells cultured on round cover slips. RAGE is prominently expressed in RPE cells where it may be selectively expressed on the basal membrane as in other human epithelial cells. […] In contrast, AGE in drusen, which accumulates between retinal pigment epithelium and Bruch's membrane, would have ready access to basally located RAGE, optimally positioning AGE/RAGE signaling to mediate the localized RPE apoptosis that constitutes so-called “geographic atrophy” in age-related macular degeneration. […]

RAGE = assay: CML-BSA-induced RAGE expression in ARPE-19 cells (immunoblot); format: cell-based, human; conditions: cells grown on CML-BSA
Source text: Activated complement and RAGE induce angiogenic and pro-inflammatory signaling in cultured RPE cells. Experiments studying the biology of RAGE in cultured RPE cells using the ARPE-19 human RPE cell line were consucted. As shown in immunoblots (FIG. 17), ARPE-19 cells express at least 4 isoforms of RAGE ranging from 45-50 kDa in cell lysates, and secrete these isoforms into conditioned media. […] Because RAGE ligation activates the transcription factor NF-κB, enhanced expression of RAGE greatly promotes pro-inflammatory signaling. […] This would prevent “feed-forward” pro-inflammatory increases in RAGE expression itself by RAGE ligation.

LL-37 injected skin = assay: SAGE topical treatment LL-37 rosacea model; format: in vivo, Balb/c mice; conditions: topical administration
Protocol: SAGE topical treatment rosacea model. Balb/c mice were shaved […] area of skin on the back. We then began topical application of a hyaluronan-cased emollient containing 5% SAGEs (active emollient) or hyaluronic acid based emollient alone to this area of skin every 12 hours. Twenty-four hours later, we injected 40 μL of vehicle (PBS) or cationic peptide (at 320 μM concentration) subcutaneously into the shaved skin in the manner described previously. Injections and topical emollient applications were repeated every 12 h thereafter. Forty-eight hours after the initial injection (four injections in total), animals were lightly anesthetized as described previously. […] The intensity of erythema was assessed as a redness score (from 1 to 5), and the area of erythema was measured with calipers. […]
Myeloperoxidase (MPO) assay. […] Tissue MPO activity was measured using a method by Suzuki et. al. (Suzuki K, Ota H, Sasagawa S, Sakatani T, Fujikura T. Assay method for myeloperoxidase in human polymorphonuclear leukocytes. Anal Biochem 132:345-352, 1983) as modified by Young et. al. (Young J M, Spires D A, Bedord C J, Wagner B, Ballaron S J, De oung L M. The mouse ear inflammatory response to typical arachidonic acid. J Invest Dermatol 82:367-371, 1984). […] The homogenate was transferred quantitatively to a microcentrifuge tube with an additional 0.75 mL HTAB in PBS. […]

[1] = target: T7, Hageman factor (Factor XII) (Homo sapiens, UniProt P00748)
T7 sequence (P00748 20-615): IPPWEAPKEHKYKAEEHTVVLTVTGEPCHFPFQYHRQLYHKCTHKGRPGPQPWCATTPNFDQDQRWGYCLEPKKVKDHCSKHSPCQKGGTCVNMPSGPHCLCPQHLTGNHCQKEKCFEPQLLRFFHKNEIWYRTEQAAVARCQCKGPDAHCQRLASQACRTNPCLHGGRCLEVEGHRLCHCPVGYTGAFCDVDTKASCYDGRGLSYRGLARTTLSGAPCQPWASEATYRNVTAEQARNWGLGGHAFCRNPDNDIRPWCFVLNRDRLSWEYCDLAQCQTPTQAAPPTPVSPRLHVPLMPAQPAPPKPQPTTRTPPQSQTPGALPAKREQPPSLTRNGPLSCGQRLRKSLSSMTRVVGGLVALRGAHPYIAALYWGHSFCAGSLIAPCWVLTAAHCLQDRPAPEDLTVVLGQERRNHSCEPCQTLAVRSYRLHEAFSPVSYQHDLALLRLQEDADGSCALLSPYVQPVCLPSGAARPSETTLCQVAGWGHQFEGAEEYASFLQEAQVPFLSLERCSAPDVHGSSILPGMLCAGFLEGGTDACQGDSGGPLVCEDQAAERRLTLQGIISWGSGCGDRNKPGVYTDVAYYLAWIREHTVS
Protocol: Enzymatic assays. […] Pooled human plasma (5 μl) was incubated with 100 μl of SAHA (0.1 to 1000 μg/ml) in 0.05 M HEPES containing Triton X-100 for 5 min at 5° C.
SAGEs were screened for their ability to stimulate intrinsic coagulation (activation of Hageman factor). Pooled human plasma was incubated with heparin or low molecular weight (Lmw) sulfated and fluoroalkylated HAs (Lmw-OSFHA-1, Lmw-OSFHA-2) and amidolytic activity was determined using the substrate D-cyclohydrotyrosyl-Gly-Arg-p-NA.

[2] = test system: human neonatal epidermal keratinocytes; assay: Keratinocyte proliferation assay; format: cell-based; conditions: high molecular weight derivatives, 100 μg/ml, FIG. 8
Protocol: Fourth, SAGEs are potent inhibitors of the proliferation of human keratinocytes. In these assays human neonatal epidermal keratinocytes were cultured in the presence and absence of SAGEs or other inhibitors, and proliferation was measured by adding a dye that is reduced in direct proportion to the number of viable cells present.

nHEK cells = assay: Cytotoxicity (MTS); format: cell-based, human; conditions: up to 10 mg/ml

T1 sequence (P16109 with tags, fused parts or gaps limits assumed): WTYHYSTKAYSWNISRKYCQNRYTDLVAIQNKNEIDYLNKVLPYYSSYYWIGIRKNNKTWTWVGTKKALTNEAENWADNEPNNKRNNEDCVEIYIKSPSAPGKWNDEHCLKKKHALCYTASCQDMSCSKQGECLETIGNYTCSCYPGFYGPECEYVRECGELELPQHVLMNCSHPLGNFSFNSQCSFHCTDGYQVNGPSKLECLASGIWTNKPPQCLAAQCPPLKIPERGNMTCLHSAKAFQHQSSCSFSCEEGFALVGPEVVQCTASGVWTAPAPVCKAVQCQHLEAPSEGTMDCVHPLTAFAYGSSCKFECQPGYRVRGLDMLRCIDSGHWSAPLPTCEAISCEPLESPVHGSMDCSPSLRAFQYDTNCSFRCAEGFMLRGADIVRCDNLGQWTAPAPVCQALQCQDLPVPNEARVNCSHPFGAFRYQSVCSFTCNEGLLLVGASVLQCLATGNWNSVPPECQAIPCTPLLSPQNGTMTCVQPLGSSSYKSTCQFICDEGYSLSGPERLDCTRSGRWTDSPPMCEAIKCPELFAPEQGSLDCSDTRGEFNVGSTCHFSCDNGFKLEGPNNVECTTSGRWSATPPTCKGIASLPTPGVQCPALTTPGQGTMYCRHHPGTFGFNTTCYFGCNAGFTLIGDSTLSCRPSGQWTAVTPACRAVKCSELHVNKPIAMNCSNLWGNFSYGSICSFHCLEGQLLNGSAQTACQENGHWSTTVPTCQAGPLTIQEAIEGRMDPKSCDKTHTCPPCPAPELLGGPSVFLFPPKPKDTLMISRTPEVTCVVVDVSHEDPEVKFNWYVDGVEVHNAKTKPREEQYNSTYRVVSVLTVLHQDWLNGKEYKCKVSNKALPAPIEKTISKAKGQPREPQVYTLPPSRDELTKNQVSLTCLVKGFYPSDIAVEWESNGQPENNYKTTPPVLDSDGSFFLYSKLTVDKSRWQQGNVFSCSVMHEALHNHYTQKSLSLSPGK
T3 sequence (Q15109 with tags, fused parts or gaps limits assumed): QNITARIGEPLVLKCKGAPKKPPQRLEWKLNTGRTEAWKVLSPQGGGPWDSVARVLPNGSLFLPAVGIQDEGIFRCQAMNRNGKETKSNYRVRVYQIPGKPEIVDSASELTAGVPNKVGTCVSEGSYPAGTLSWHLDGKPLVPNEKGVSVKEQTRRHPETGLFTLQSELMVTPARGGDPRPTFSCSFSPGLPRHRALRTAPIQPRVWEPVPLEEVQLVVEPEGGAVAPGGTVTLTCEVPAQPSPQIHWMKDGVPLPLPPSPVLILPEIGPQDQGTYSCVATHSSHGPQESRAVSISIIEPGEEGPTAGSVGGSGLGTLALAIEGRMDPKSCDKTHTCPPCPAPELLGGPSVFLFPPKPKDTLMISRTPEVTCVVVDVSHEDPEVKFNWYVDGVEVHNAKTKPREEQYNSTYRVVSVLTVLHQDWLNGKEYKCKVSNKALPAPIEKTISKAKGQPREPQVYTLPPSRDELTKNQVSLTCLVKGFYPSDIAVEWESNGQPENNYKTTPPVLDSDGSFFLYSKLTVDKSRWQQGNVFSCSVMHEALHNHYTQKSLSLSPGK
T2 sequence (Q15109 with tags, fused parts or gaps limits assumed): as above
T4 sequence (Q15109 with tags, fused parts or gaps limits assumed): as above
T5 sequence (Q15109 with tags, fused parts or gaps limits assumed): as above

Substance	P-Selectin/PSGL (P-Selectin/PSGL)	RAGE/Mac-1 (RAGE/Mac-1)	RAGE/CML-BSA (RAGE/CML-BSA)	RAGE/S100B (RAGE/S100B)	RAGE/HMGB1 (RAGE/HMGB1)	Leukocyte Elastase (human leukocyte elastase)	AGE-induced apoptosis (ARPE-19 cells)	up-regulation of RAGE expression (RAGE)	inflammation and MPO activities, SAGE vs. HA (LL-37 injected skin)	Hageman Factor [1]	IC50 (human leukocyte elastase; FIG. 4, read-out: IC50 for HLE)	inhibition of keratinocyte proliferation [2]	toxicity to nHEK cells (nHEK cells)
2-0, 3-0 desulfated heparin [ODSH, reference compound]	1.1 µg/mL	0.09 µg/mL	8.6 µg/mL	4.2 µg/mL	0.23 µg/mL	0.22 µg/mL	Apoptosis is reduced; also recorded: inhibited	prevented up-regulation of RAGE expression					
Hyaluronic Acid [HA, reference compound]									did not alleviate inflammation				
P—OSFHA-1(DS 1) [GM-231101]	12.048 µg/mL			14.6 µg/mL		0.185 µg/mL				400 µg/mL			
P—OSFHA-1(DS 2) [GM-231201]	0.126 µg/mL	28.4 µg/mL	2.579 µg/mL	8.82 µg/mL		0.487 µg/mL				400 µg/mL			
P—OSFHA-2(DS 1) [GM-331101]	8.958 µg/mL			4.557 µg/mL		0.375 µg/mL				400 µg/mL			
P—OSFHA-2(DS 2) [GM-331201]			1.682 µg/mL	2.28 µg/mL		0.353 µg/mL				40 µg/mL			
P—OSMeHA(DS 1) [GM-131101]	5.61 µg/mL	0.51 µg/mL	6.09 µg/mL	31.069 µg/mL	2.68 µg/mL	0.285 µg/mL					3.46 nM	less active	non-toxic
P—OSMeHA(DS 2) [GM-131201]	0.5 µg/mL	0.3 µg/mL	0.044 µg/mL	0.06 µg/mL		0.42 µg/mL				0.4 µg/mL			
